Patent US20010011063A1, “Substituted 2,4-diamino-1,3,5-triazines, processes for their preparation and their use as herbicides and plant growth regulators” (priority 1999, published 2001)

Key:
Format in all cases: in vivo
[1] = test system: Stellaria media, Lolium multiflorum, Amaranthus retroflexus, Sinapis alba, Avena sativa and Settaria viridis; test: Pre-emergence effect on weeds (greenhouse pot test); details: application rate of 1 kg or less of active substance per hectare; visually scored after 3 to 4 weeks by comparison with untreated controls
From the text: Seeds or rhizome pieces of mono and dicotyledonous weed plants are placed in sandy loam soil in plastic pots and covered with soil. The compounds according to the invention which are formulated in the form of wettable powders or emulsion concentrates are then applied to the soil cover in the form of aqueous suspensions or emulsions at an application rate of 600 to 800 l of water/ha (converted), in various dosages.

[2] = test system: Sinapis alba, Echinochloa crus-galli, Lolium multiforum, Stellaria media, Cyperus iria, Amaranthus retroflexus, Settaria viridis and Avena sativa; test: Post-emergence effect on weeds (greenhouse pot test); details: application rate of 1 kg or less of active substance per hectare; treated at the three-leaf stage; scored visually after about 3 to 4 weeks vs untreated controls
Protocol: Seeds or rhizome pieces of mono- and dicotyledonous weeds are placed in sandy loam soil in plastic pots, covered with soil and grown in a greenhouse under good growth conditions. Three weeks after sowing, the test plants are treated at the three-leaf stage. The compounds according to the invention, formulated as wettable powders or emulsion concentrates, are sprayed, at various dosages, onto the green parts of the plants at an application rate of 600 to 800 l of water/ha (converted). After the test plants had remained in the greenhouse for about 3 to 4 weeks under optimum growth conditions, the effect of the preparations is scored visually by comparison with untreated controls. The agents according to the invention also have good herbicidal activity post-emergence against a broad spectrum of economically important weed grasses and broad-leaved weeds.

[3] = test system: Cyperus monti, Echinochloa crus-galli and Sagitaria pygmaea; test: Action on harmful plants in rice (paddy rice conditions); details: poured into the dammed water, visual scoring about three weeks after application; further: test concentration or dose not given here
From the text: Transplanted and sown rice and also typical rice weeds (gramineous and broad-leaved) are cultivated in closed plastic pots in a greenhouse to the three-leaf stage (Echinochloa crus-galli 1.5-leaf) under paddy rice conditions (height of water: 2-3 cm). This is followed by treatment with the compounds according to the invention. For this purpose, the formulated active compounds are suspended, dissolved or emulsified in water and applied by pouring them into the dammed water around the test plants in different dosages.

CC(C)(F)c1nc(N)nc(N[C@@H](CCc2cccc(Cl)c2)C2CCC2)n1 [Example 1-24]
very good herbicidal activity: herbicidal activity pre-emergence against harmful plants [1] | herbicidal activity post-emergence against harmful plants [2] | herbicidal activity against harmful plants which are typical for rice crops [3]

Cc1cccc(CC[C@H](Nc2nc(N)nc(C(C)C)n2)C2CCC2)c1 [Example 1-27]
very good herbicidal activity: herbicidal activity pre-emergence against harmful plants [1] | herbicidal activity post-emergence against harmful plants [2] | herbicidal activity against harmful plants which are typical for rice crops [3]

Cc1cccc(CC[C@H](Nc2nc(N)nc(C(C)(C)F)n2)C2CCC2)c1 [Example 1-28]
very good herbicidal activity: herbicidal activity pre-emergence against harmful plants [1] | herbicidal activity post-emergence against harmful plants [2] | herbicidal activity against harmful plants which are typical for rice crops [3]

CC(C)c1nc(N)nc(N[C@@H](CCc2ccccc2)CC2CC2)n1 [Example 1-144]
very good herbicidal activity: herbicidal activity pre-emergence against harmful plants [1] | herbicidal activity post-emergence against harmful plants [2] | herbicidal activity against harmful plants which are typical for rice crops [3]

CC(C)(F)c1nc(N)nc(N[C@@H](CCc2ccccc2)CC2CC2)n1 [Example 1-145]
very good herbicidal activity: herbicidal activity pre-emergence against harmful plants [1] | herbicidal activity post-emergence against harmful plants [2] | herbicidal activity against harmful plants which are typical for rice crops [3]

CC(C)c1nc(N)nc(N[C@H](CCc2ccccc2)C2CCC2)n1 [Example 2-14]
very good herbicidal activity: herbicidal activity pre-emergence against harmful plants [1] | herbicidal activity post-emergence against harmful plants [2] | herbicidal activity against harmful plants which are typical for rice crops [3]

CC(C)(F)c1nc(N)nc(N[C@H](CCc2ccccc2)C2CCC2)n1 [Example 2-15, 2-Amino-4-(1-fluoro-1-methylethyl)-6-[(1 R)-3-phenyl-1-cyclobutyl-1-propylamino]-1,3,5-triazine]
very good herbicidal activity: herbicidal activity pre-emergence against harmful plants [1] | herbicidal activity post-emergence against harmful plants [2] | herbicidal activity against harmful plants which are typical for rice crops [3]

CC(C)c1nc(N)nc(N[C@H](CCc2cccc(Cl)c2)C2CCC2)n1 [Example 2-23]
very good herbicidal activity: herbicidal activity pre-emergence against harmful plants [1] | herbicidal activity post-emergence against harmful plants [2] | herbicidal activity against harmful plants which are typical for rice crops [3]

CC(C)(F)c1nc(N)nc(N[C@H](CCc2cccc(Cl)c2)C2CCC2)n1 [Example 2-24]
very good herbicidal activity: herbicidal activity pre-emergence against harmful plants [1] | herbicidal activity post-emergence against harmful plants [2] | herbicidal activity against harmful plants which are typical for rice crops [3]

Cc1cccc(CC[C@@H](Nc2nc(N)nc(C(C)C)n2)C2CCC2)c1 [Example 2-27]
very good herbicidal activity: herbicidal activity pre-emergence against harmful plants [1] | herbicidal activity post-emergence against harmful plants [2] | herbicidal activity against harmful plants which are typical for rice crops [3]

Cc1cccc(CC[C@@H](Nc2nc(N)nc(C(C)(C)F)n2)C2CCC2)c1 [Example 2-28]
very good herbicidal activity: herbicidal activity pre-emergence against harmful plants [1] | herbicidal activity post-emergence against harmful plants [2] | herbicidal activity against harmful plants which are typical for rice crops [3]

CC(C)c1nc(N)nc(N[C@H](CCc2ccccc2)CC2CC2)n1 [Example 2-144]
very good herbicidal activity: herbicidal activity pre-emergence against harmful plants [1] | herbicidal activity post-emergence against harmful plants [2] | herbicidal activity against harmful plants which are typical for rice crops [3]

CC(C)(F)c1nc(N)nc(N[C@H](CCc2ccccc2)CC2CC2)n1 [Example 2-145]
very good herbicidal activity: herbicidal activity pre-emergence against harmful plants [1] | herbicidal activity post-emergence against harmful plants [2] | herbicidal activity against harmful plants which are typical for rice crops [3]

Nc1nc(N[C@@H](CCCc2ccc(Cl)cc2Cl)C2CC2)nc(C(F)(F)F)n1 [Example 3-6]
very good herbicidal activity: herbicidal activity pre-emergence against harmful plants [1] | herbicidal activity post-emergence against harmful plants [2] | herbicidal activity against harmful plants which are typical for rice crops [3]

Cc1nc(N)nc(N[C@@H](CCCc2ccccc2)C2CC2)n1 [Example 3-8]
very good herbicidal activity: herbicidal activity pre-emergence against harmful plants [1] | herbicidal activity post-emergence against harmful plants [2] | herbicidal activity against harmful plants which are typical for rice crops [3]

CCc1nc(N)nc(N[C@@H](CCCc2ccccc2)C2CC2)n1 [Example 3-9]
very good herbicidal activity: herbicidal activity pre-emergence against harmful plants [1] | herbicidal activity post-emergence against harmful plants [2] | herbicidal activity against harmful plants which are typical for rice crops [3]

CC(C)c1nc(N)nc(N[C@@H](CCCc2ccccc2)C2CC2)n1 [Example 3-11]
very good herbicidal activity: herbicidal activity pre-emergence against harmful plants [1] | herbicidal activity post-emergence against harmful plants [2] | herbicidal activity against harmful plants which are typical for rice crops [3]

CC(C)(F)c1nc(N)nc(N[C@@H](CCCc2ccccc2)C2CC2)n1 [Example 3-12]
very good herbicidal activity: herbicidal activity pre-emergence against harmful plants [1] | herbicidal activity post-emergence against harmful plants [2] | herbicidal activity against harmful plants which are typical for rice crops [3]

CC(C)(F)c1nc(N)nc(N[C@@H](CCCc2cccc(Cl)c2)C2CC2)n1 [Example 3-18]
very good herbicidal activity: herbicidal activity pre-emergence against harmful plants [1] | herbicidal activity post-emergence against harmful plants [2] | herbicidal activity against harmful plants which are typical for rice crops [3]

CC(C)c1nc(N)nc(N[C@@H](CCCc2ccccc2)C2CCC2)n1 [Example 3-58]
very good herbicidal activity: herbicidal activity pre-emergence against harmful plants [1] | herbicidal activity post-emergence against harmful plants [2] | herbicidal activity against harmful plants which are typical for rice crops [3]
